# Positions count from the first letter of the chain named.
# Key:
# [1] = target: T1, endogenous FSHR ("WT") (Homo sapiens, UniProt P23945, E197A/L198V/N112T); experiment: Alpha Screen cAMP accumulation, endogenous FSHR (WT); assay type: cell-based; conditions: 293 cells expressing WT FSHR, FIG. 3
# T1 construct: The 2.1 kb PCR fragment was then cloned into EcoRV-EcoRI site of CMVp expression vector; expressed in transfected cells
# T1 sequence (P23945 18-695 N112T/E197A/L198V): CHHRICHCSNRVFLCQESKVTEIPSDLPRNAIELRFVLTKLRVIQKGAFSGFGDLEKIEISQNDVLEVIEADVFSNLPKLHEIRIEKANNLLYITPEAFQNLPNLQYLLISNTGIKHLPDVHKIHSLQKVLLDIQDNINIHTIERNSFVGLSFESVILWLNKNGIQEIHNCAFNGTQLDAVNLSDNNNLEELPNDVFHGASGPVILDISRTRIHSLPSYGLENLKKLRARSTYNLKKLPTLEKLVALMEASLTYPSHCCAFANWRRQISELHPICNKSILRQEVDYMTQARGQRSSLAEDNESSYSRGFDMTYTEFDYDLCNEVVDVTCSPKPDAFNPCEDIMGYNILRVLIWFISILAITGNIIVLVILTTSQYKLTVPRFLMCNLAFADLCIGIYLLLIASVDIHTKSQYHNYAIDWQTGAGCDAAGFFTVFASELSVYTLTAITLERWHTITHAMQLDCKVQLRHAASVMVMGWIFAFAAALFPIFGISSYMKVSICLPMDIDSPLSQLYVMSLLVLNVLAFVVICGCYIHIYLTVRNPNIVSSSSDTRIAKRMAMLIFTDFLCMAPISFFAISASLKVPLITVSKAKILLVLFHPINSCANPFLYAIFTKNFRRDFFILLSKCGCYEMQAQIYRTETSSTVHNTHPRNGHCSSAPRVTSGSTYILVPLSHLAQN
# Method: (§1) Approximately 12×10^6 293 cells are plated on a 15 cm tissue culture plate. Grown in DME High Glucose Medium containing ten percent fetal bovine serum and one percent sodium pyruvate, L-glutamine, and anti-biotics. Twenty-four hours following plating of 293 cells (or to ˜80% confluency), the cells are transfected using 12 μg of DNA. The 12 μg of DNA is combined with 60 μl of lipofectamine and 2 mL of DME High Glucose Medium without serum. The medium is aspirated from the plates and the cells are washed once with medium without serum. The DNA, lipofectamine, and medium mixture are added to the plate along with 10 mL of medium without serum. Following incubation at 37 degrees Celsius for four to five hours, the medium is aspirated and 25 ml of medium containing serum is added. Twenty-four hours following transfection, the medium is aspirated again, and fresh medium with serum is added. Forty-eight hours following transfection, the medium is aspirated and medium with serum is added containing geneticin (G418 drug) at a final concentration of 500 μg/mL. The transfected cells will undergo selection for positively transfected cells containing the G418 resistant gene. […]
# (§2) The media from Example 3(b) above was aspirated and rinsed 1× with PBS (5-10 ml/flask). […] Following incubation, the wells were read on Alpha Quest and measured for light units. […]
# [2] = target: T2, non-endogenous FSHR ("L460R") (Homo sapiens, UniProt P23945, E197A/L198V/L460R/N112T); experiment: Alpha Screen cAMP accumulation, non-endogenous constitutively activated FSHR (L460R); assay type: cell-based; conditions: L460R versus WT, FIG. 3
# T2 construct: expressed in transfected cells
# T2 sequence (P23945 18-695 N112T/E197A/L198V/L460R): T1 sequence (P23945 18-695 N112T/E197A/L198V) with L443R
# Method: as §1, §2
smiles,measurement,setting,value
"CCCCCc1ccc(C(=O)N2CCCCC2C(=O)Nc2ccc3c(c2)c2ccccc2n3CC)c(=O)o1 (centres unmarked) [Compound A, 1-[(2-oxo-6-pentyl-2H-pyran)-3-carbonyl]-piperidine-2-carboxylic acid-3-(9-ethylcarbazolyl) amide]",EC50,[1],~3 nM
same,efficacy for L460R version of FSHR compared with the WT receptor,[2],better efficacy
